# Like-named read-outs stand apart in the source and are kept apart here.
# What was measured:
# GABAA α-6 site [1] = assay: GABAA alpha 6 site competitive binding (3H-Ro 15-4513); settings: Conc. 1.0E−4 M, bovine hippocampus
# Text: (§1) The binding profile of exemplary inventive compounds to neurotransmitter receptor sites is set forth below in Table 1. The characterization of the receptors, isolation of the membrane, and enzyme assay have been described in detail previously (see, e.g., Cole et al., Life Sci., 35, 1755 (1984), Lawrence et al., J. Neurochem., 45(3), 798 (1985), Sweetnam et al., Mol. Pharmacology, 29, 299 (1986), Zarkovsky et al., Neuropharmacology, 26 (7A), 737 (1987), Li et al., Eur. J. Pharmacology, 413, 63 (2001), and Markela et al., Mol. Pharmacology, 52, 380 (1997)).
# (§2) The melatonin binding site on GABAA was defined using a series of competitive binding assays. Frozen bovine hippocampus was thawed and homogenized in 40 volumes of ice-cold 0.32 M sucrose. The suspension was centrifuged at 1000×g for 10 minutes at 4° C. The pellet was washed twice in assay buffer and reacted with radioactive ligand in presence or absence of melatonin at 10^−4 M final concentration. The amount of radioactivity remained on the Whatman filter following filtration of the reaction mix and two washes with assay buffer was determined using a liquid scintillation counter. Inhibition of radioactive ligand binding by melatonin represents the competitive binding of melatonin to the same site as the radioactive ligand. GABAA agonist site, GABAA α-1 site, GABAA α-5 site, GABAA α-6 site, and GABAA Cl channel were assayed using ^3H-GABA, ^3H-flunitrazepam, ^3H-RY80, ^3H-Ro 15-4513, and ^3H-TBOB.
# GABAA agonist site = GABAA agonist site competitive binding (3H-GABA); settings: bovine hippocampus
# Text: as §1, §2
# rats [2] = settings: cited from earlier work; for ED95 (95% CI, for loss of righting reflex): intravenous
# GABAA α-1 site [3] = assay: GABAA alpha 1 site competitive binding (3H-flunitrazepam); settings: Conc. 1.0E−4 M, bovine hippocampus
# Text: as §1, §2
# GABAA Cl channel [4] = assay: GABAA Cl channel, TBOB site competitive binding (3H-TBOB), single concentration; settings: Conc. 1.0E−4 M, bovine hippocampus
# Text: as §1, §2
# GABAA α-1 site [5] = assay: GABAA alpha 1 site competitive binding (3H-flunitrazepam); settings: Conc. 1.0E−3 M, bovine hippocampus
# GABAA α-6 site [6] = assay: GABAA alpha 6 site competitive binding (3H-Ro 15-4513); settings: Conc. 1.0E−3 M, bovine hippocampus
# GABAA Cl channel [7] = assay: GABAA Cl channel, TBOB site competitive binding (3H-TBOB), single concentration; settings: Conc. 1.0E−3 M, bovine hippocampus
# rats [8] = assay: In vivo hypnotic activity: time to recovery of righting reflex after tail vein injection; settings: 28 μmol/kg (5 mg/kg for propofol), in DMSO
# Protocol: (§3) The suspension was centrifuged at 1000×g for 10 minutes at 4° C. The pellet was washed twice in assay buffer and reacted with radioactive ligand in presence or absence of […] at 10^−4 M final concentration. The amount of radioactivity remained on the Whatman filter following filtration of the reaction mix and two washes with assay buffer was determined using a liquid scintillation counter. Inhibition of radioactive ligand binding by melatonin represents the competitive binding of melatonin to the same site as the radioactive ligand. GABAA Cl channel were assayed using ^3H-TBOB. The binding was carried out in the presence of increasing concentration of melatonin and the KD determined graphically using the Hill plots. In vivo hypnotic activity was determined as follow. Drugs solubilized in DMSO were administered to rats by tail vein injection (N=5 rats per group). A dose level of 28 μmol/kg (5 mg/kg for propofol) was used to compensate for differences in molecular weight of the analogs. Anesthetic activity in vivo was determined as time to recovery of righting reflex following administration of the compounds.
# GABAA Cl channel [9] = assay: GABAA Cl channel binding constant determination (3H-TBOB, increasing concentration, Hill plots); settings: bovine hippocampus
# Protocol: as §3
# Dawley rats = assay: Response to tail clamping after single i.v. bolus; assay type: in vivo; settings: single i.v. bolus 15 mg/kg, in 10% ethanol/16% Cremophor
# Protocol: This example illustrates the tail clamping with melatonin analogs. Dawley rats (Harlan, Indianapolis, Ind., USA) were weighed and anaesthetized with isoflurane. In all rats, the right jugular vein was cannulated with a heparinized saline filled catheter. Studies were carried out 5-7 days after surgery.
# Tail clamp was tested by application of a rubber-clad vascular clamp (22 cm DeBakey) across the proximal third of the tail. Purposeful movement of the hind limbs and/or the head was noted as a positive response.
smiles,measurement,setting,value
"CC(C)c1cccc(C(C)C)c1O [2,6-Diisopropylphenol, reference compound]","Specific binding, GABAA Alpha 6 site (inhibition of radioactive ligand binding)",GABAA α-6 site [1],−0.89%
same,"Specific binding, GABAA Agonist site (inhibition of radioactive ligand binding)",GABAA agonist site; Conc. 1.0E−4 M,12.48%
same,Effect of bolus injection on righting reflex,rats [2]; bolus injection of 10 mg/kg,immediate loss of righting reflex
same,"ED95 (95% CI, for loss of righting reflex)",rats [2],14.9 mg/kg
same,"Specific binding, GABAA Alpha 1 site (inhibition of radioactive ligand binding)",GABAA α-1 site [3],−14.31%
same,"Specific binding, GABAA Ion Channels Cl−, TBOB site (inhibition of radioactive ligand binding)",GABAA Cl channel [4],117.52%
"COc1ccc2[nH]c(-c3cccc(C(F)(F)F)c3)c(CCNC(C)=O)c2c1 [2-(3-Trifluoromethylphenyl) melatonin, N-(2-(2-(3-trifluoromethylphenyl)-5-methoxy-1H-indol-3-yl)ethyl)acetamide]","Specific binding, GABAA Alpha 6 site (inhibition of radioactive ligand binding)",GABAA α-6 site [1],25.39%
same,"Specific binding, GABAA Alpha 1 site (inhibition of radioactive ligand binding)",GABAA α-1 site [3],15.61%
same,"Specific binding, GABAA Ion Channels Cl−, TBOB site (inhibition of radioactive ligand binding)",GABAA Cl channel [4],79.60%
"COc1ccc2[nH]c(-c3ccc(F)cc3)c(CCNC(C)=O)c2c1 [2-(4-Fluorophenyl) melatonin, N-(2-(2-(4-fluorophenyl)-5-methoxy-1H-indol-3-yl)ethyl)acetamide]","Specific binding, GABAA Alpha 6 site (inhibition of radioactive ligand binding)",GABAA α-6 site [1],20.76%
same,"Specific binding, GABAA Alpha 1 site (inhibition of radioactive ligand binding)",GABAA α-1 site [3],28.80%
same,"Specific binding, GABAA Ion Channels Cl−, TBOB site (inhibition of radioactive ligand binding)",GABAA Cl channel [4],110.10%
"COc1ccc2[nH]c(-c3ccc(C)cc3)c(CCNC(C)=O)c2c1 [2-(4-Methylphenyl) melatonin, N-(2-(5-methoxy-2-p-tolyl-1H-indol-3-yl)ethyl)acetamide]","Specific binding, GABAA Alpha 6 site (inhibition of radioactive ligand binding)",GABAA α-6 site [1],32.93%
same,"Specific binding, GABAA Alpha 1 site (inhibition of radioactive ligand binding)",GABAA α-1 site [3],10.28%
same,"Specific binding, GABAA Ion Channels Cl−, TBOB site (inhibition of radioactive ligand binding)",GABAA Cl channel [4],101.46%
"COc1ccc2[nH]c(-c3ccc(C(F)(F)F)cc3)c(CCNC(C)=O)c2c1 [2-(4-Trifluoromethylphenyl) melatonin, N-(2-(2-(4-trifluoromethylphenyl)-5-methoxy-1H-indol-3-yl)ethyl)acetamide]","Specific binding, GABAA Alpha 6 site (inhibition of radioactive ligand binding)",GABAA α-6 site [1],25.87%
same,"Specific binding, GABAA Alpha 1 site (inhibition of radioactive ligand binding)",GABAA α-1 site [3],8.11%
same,"Specific binding, GABAA Ion Channels Cl−, TBOB site (inhibition of radioactive ligand binding)",GABAA Cl channel [4],103.23%
"COc1ccc2[nH]c(Br)c(CCNC(C)=O)c2c1 [2-Bromomelatonin, N-(2-(2-bromo-5-methoxy-1H-indol-3-yl)ethyl)acetamide]","Specific binding, GABAA Alpha 1 site (inhibition of radioactive ligand binding)",GABAA α-1 site [5],8.35%
same,"Specific binding, GABAA Agonist site (inhibition of radioactive ligand binding)",GABAA agonist site; Conc. 1.0E−3 M,−8.55%
same,"Specific binding, GABAA Alpha 6 site (inhibition of radioactive ligand binding)",GABAA α-6 site [6],−12.69%
same,"Specific binding, GABAA Ion Channels Cl−, TBOB site (inhibition of radioactive ligand binding)",GABAA Cl channel [7],51.87%
"COc1ccc2[nH]c(-c3ccccc3)c(CCNC(C)=O)c2c1 [2-Phenylmelatonin, N-(2-(5-methoxy-2-phenyl-1H-indol-3-yl)ethyl)acetamide]","Specific binding, GABAA Alpha 6 site (inhibition of radioactive ligand binding)",GABAA α-6 site [1],12.48%
same,"Specific binding, GABAA Agonist site (inhibition of radioactive ligand binding)",GABAA agonist site; Conc. 1.0E−4 M,0.33%
same,"Specific binding, GABAA Alpha 1 site (inhibition of radioactive ligand binding)",GABAA α-1 site [3],35.16%
same,"Specific binding, GABAA Ion Channels Cl−, TBOB site (inhibition of radioactive ligand binding)",GABAA Cl channel [4],84.28%
"CC(=O)NCCc1c(Cc2ccccc2)[nH]c2ccccc12 [Luzindole, reference compound]","Specific binding, GABAA Alpha 6 site (inhibition of radioactive ligand binding)",GABAA α-6 site [1],4.93%
same,"Specific binding, GABAA Agonist site (inhibition of radioactive ligand binding)",GABAA agonist site; Conc. 1.0E−4 M,5.84%
same,"Specific binding, GABAA Alpha 1 site (inhibition of radioactive ligand binding)",GABAA α-1 site [3],5.09%
same,"Specific binding, GABAA Ion Channels Cl−, TBOB site (inhibition of radioactive ligand binding)",GABAA Cl channel [4],47.55%
"COc1ccc2[nH]cc(CCNC(C)=O)c2c1 [Melatonin, N-acetyl-5-methoxytryptamine]","Specific binding, GABAA Alpha 1 site (inhibition of radioactive ligand binding)",GABAA α-1 site [5],39.80%
same,"Specific binding, GABAA Agonist site (inhibition of radioactive ligand binding)",GABAA agonist site; Conc. 1.0E−3 M,−3.11%
same,Effect of bolus injection on righting reflex,rats [2]; bolus injection of 312 mg/mL,immediate loss of righting reflex
same,"Specific binding, GABAA Alpha 6 site (inhibition of radioactive ligand binding)",GABAA α-6 site [6],17.50%
same,"Specific binding, GABAA Ion Channels Cl−, TBOB site (inhibition of radioactive ligand binding)",GABAA Cl channel [7],39.44%
"CC(C)c1cccc(C(C)C)c1O [drawing 16, reference compound]","Anesthesia Activity (Time to awakening, min)",rats [8],20.8 min
same,IC50,GABAA Cl channel [9],4.86 µM
COc1ccc2[nH]c(-c3ccccc3)c(CCNC(C)=O)c2c1 [drawing 18],IC50,GABAA Cl channel [9],108 µM
COc1ccc2[nH]c(-c3ccc(F)cc3)c(CCNC(C)=O)c2c1 [drawing 19],"Anesthesia Activity (Time to awakening, min)",rats [8],3.0 min
same,IC50,GABAA Cl channel [9],27.9 µM
COc1ccc2[nH]c(-c3ccc(C(F)(F)F)cc3)c(CCNC(C)=O)c2c1 [drawing 20],"Anesthesia Activity (Time to awakening, min)",rats [8],20.8 min
same,IC50,GABAA Cl channel [9],13.1 µM
COc1ccc2[nH]c(-c3ccc(C)cc3)c(CCNC(C)=O)c2c1 [drawing 21],"Anesthesia Activity (Time to awakening, min)",rats [8],4.8 min
same,IC50,GABAA Cl channel [9],33.9 µM
COc1ccc2[nH]c(-c3cccc(C(F)(F)F)c3)c(CCNC(C)=O)c2c1 [drawing 22],"Anesthesia Activity (Time to awakening, min)",rats [8],3.8 min
COc1ccc(-c2[nH]c3ccc(OC)cc3c2CCNC(C)=O)cc1 [drawing 23],"Anesthesia Activity (Time to awakening, min)",rats [8],3.5 min
same,IC50,GABAA Cl channel [9],19.9 µM
COc1ccc2[nH]c(-c3ccc(C(C)(C)C)cc3)c(CCNC(C)=O)c2c1 [drawing 24],"Anesthesia Activity (Time to awakening, min)",rats [8],20.3 min
"COc1ccc2[nH]c(-c3ccccc3)c(CCNC(C)=O)c2c1 [drawing 25, reference compound]",# lack of response rat/tested rat,Dawley rats,0/5
same,"Time of lack of response to the tail clamp, min",Dawley rats,No effect
COc1ccc2[nH]c(-c3ccc(F)cc3)c(CCNC(C)=O)c2c1 [drawing 26],# lack of response rat/tested rat,Dawley rats,5/5
same,Time of lack of response to the tail clamp,Dawley rats,2 min
COc1ccc2[nH]c(-c3ccc(C(F)(F)F)cc3)c(CCNC(C)=O)c2c1 [drawing 27],# lack of response rat/tested rat,Dawley rats,4/5
same,Time of lack of response to the tail clamp,Dawley rats,15 min
COc1ccc2[nH]c(-c3cccc(C(F)(F)F)c3)c(CCNC(C)=O)c2c1 [drawing 28],# lack of response rat/tested rat,Dawley rats,5/5
same,Time of lack of response to the tail clamp,Dawley rats,5 min
COc1ccc2[nH]c(-c3ccc(C(C)(C)C)cc3)c(CCNC(C)=O)c2c1 [drawing 29],# lack of response rat/tested rat,Dawley rats,5/5
same,Time of lack of response to the tail clamp,Dawley rats,5 min
CCCC(C)C1(CC)C(=O)NC(=S)NC1=O (centres unmarked) [thiopental],"ED95 (95% CI, for loss of righting reflex)",rats [2],8 mg/kg
